# From ChEMBL document CHEMBL3244367, “Synthesis and determination of antiviral activity of the 2'(3')-O-methyl derivatives of ribavirin (1-beta-D-ribofuranosyl-1,2,4-triazole-3-carboxamide)” (1977)
# System: Vaccinia virus
# Assay: Antiviral activity against Vaccinia virus infected in primary rabbit kidney cells assessed as inhibition of virus-induced cytopathogenicity treated immediately after virus adsorption measured 2 days after virus infection
# Assay type: functional
# Settings: Orthopoxvirus vaccinia, 48 h
row,Compound,MIC50 [µg/mL]
1,CO[C@@H]1[C@H](O)[C@@H](CO)O[C@H]1n1cnc(C(N)=O)n1,> 200
2,CO[C@H]1[C@@H](O)[C@H](n2cnc(C(N)=O)n2)O[C@@H]1CO,> 200
3,NC(=O)c1ncn([C@@H]2O[C@H](CO)[C@@H](O)[C@H]2O)n1 [RIBAVIRIN],20
